Test results taken from patent US8703813B2, “Compound with spiro chiral carbon backbone, preparation method thereof, and pharmaceutical composition containing the same” (SNU R & DB Foundation, priority 2008, dated 2014).

Columns and labels:
LXRα = molecular target: T1, LXRα (Homo sapiens, UniProt Q13133); assay: LXR antagonistic activity, GAL-hLXR luciferase transfection assay in CV-1 cells; format: cell-based; details: antagonism, together with agonist TO901317 (2.5 μM), 24 hours
T1 sequence (Q13133 209-447 limits assumed): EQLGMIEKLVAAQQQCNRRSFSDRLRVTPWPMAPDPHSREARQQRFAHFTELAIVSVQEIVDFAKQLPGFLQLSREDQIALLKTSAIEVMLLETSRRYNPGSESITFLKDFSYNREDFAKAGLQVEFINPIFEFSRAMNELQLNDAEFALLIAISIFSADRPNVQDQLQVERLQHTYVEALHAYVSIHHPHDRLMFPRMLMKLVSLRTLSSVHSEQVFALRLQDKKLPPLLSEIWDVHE
Experimental: (§1) Animal cell line CV-1 was used in transfection search. Cells were cultured in DMEM medium within a cell culture device containing 5% carbon dioxide at 37° C. The medium contained 10% FBS (fetal bovine serum), 100 U/ml penicillin, and 100 μg/ml streptomycin. On day 1 of the experiment, CV 1 cells were seeded in 96 well plates at 5,000 cells/well. On day 2, the seeded cells were transfected with plasmid expressing GAL-hLXR, plasmid expressing Luciferase gene, and plasmid expressing β-galactocidase by using a transfection reagent, Superfect (QIAGEN). After 16 hours, the transfected cells were treated with the compound 1 dissolved in dimethylsulfoxide (DMSO) by the concentrations, together with the agonist, TO901317 (2.5 μM). Cells treated with dimethylsulfoxide having the final concentration of 1% were used as a negative control group, and cells treated with T0901317 having the final concentration of 500 nM were used as a positive control group. The cells were cultured for 24 hours, and lysed by using a lysis buffer. […] The β-galactosidase activity, after adding of an ONPG reagent, was measured using an ELISA reader. The measured Luciferase value was corrected by activity value of β-galactosidase. […] In addition, the activities on various nuclear receptors were measured by using the same method, in order to measure selectivity for various nuclear receptors.

LXRβ = molecular target: T2, LXRβ (Homo sapiens, UniProt P55055); assay: as above; format: cell-based; details: antagonism, together with agonist TO901317 (2.5 μM), 24 hours
T2 sequence (P55055 222-460 limits assumed): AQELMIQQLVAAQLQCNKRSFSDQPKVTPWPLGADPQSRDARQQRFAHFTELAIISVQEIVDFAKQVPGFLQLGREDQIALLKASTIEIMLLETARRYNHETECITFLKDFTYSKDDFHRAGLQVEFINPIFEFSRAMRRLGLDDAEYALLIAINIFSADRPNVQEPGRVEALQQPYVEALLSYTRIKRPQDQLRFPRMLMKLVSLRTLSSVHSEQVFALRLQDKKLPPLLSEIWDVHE
Experimental: as §1

LXR protein = assay: Biacore direct binding experiment
other nuclear receptors = assay: Selectivity for various nuclear receptors, transfection assay; format: cell-based; details: same method as LXR assay
Experimental: as §1

C57BL/6 mice = assay: Fatty liver inhibitory efficacy in T0901317-induced fatty liver model; format: in vivo, mouse
Text: In order to verify the fatty liver inhibitory efficacy of the compound 1 developed in the present invention, C57BL/6 mice were used in this experiment. A fatty liver model was constructed by administering T0901317, which generates fatty liver, to 10-week age C57BL/6 mice while feeding the C57BL/6 mice with general feed-additive. The fatty liver inhibitory efficacy of the compound 1 was observed by orally administering this compound. A mouse fed with 0.75% of only carboxymethylcellulose, as a medication deliver, was used for a negative control group, and a mouse fed with only TO901317 was used for a positive control group. In addition, in order to analyze gene expression of C57BL/6 mouse liver, the mouse livers of the negative control group, the positive control group, and the treatment group were extracted and treated with Trizol, to obtain RNAs. The obtained RNAs were quantified using an absorption spectrometer (Nanodrop), and cDNAs were obtained from RNAs having the same amount among respective groups through an RT-PCR method using oligo dT and reverse transcriptase. The real-time polymerase chain reaction was performed using cDNAs, which were obtained for analysis of mRNA change among groups, as templates, and using primers of transporter genes related to fat synthesis and inflow of fat to the liver. […] Accordingly, the compounds of the present invention and derivatives thereof are expected to play a very innovative role in treatment of alcoholic fatty liver, non-alcoholic fatty liver, and fatty liver due to viral infection.

[1] = Solubility in organic solvents; format: physicochemical
Runx2, Osteocalcin, Msx2 = assay: Real time PCR of osteoblast differentiation mark factors; format: cell-based, mouse; details: C3H/10T1/2 treated for 6 days, RTPCR
Experimental: An aliquot 116V and an aliquot 116VI extracted and partitioned from sponges are dissolved in a DMSO solvent, and used to treat the C3H/10T1/2 cell line, mesenchymal progenitor cells, at concentrations of 1, 2.5, 5, 10, and 20 ug/ml. […] Since then, the same experiment was performed on the compound (1163), the compound 2 (1162), the compound 3 (1161), and the compound 4 (1164), which were purely separated from the aliquots 116V and 116VI, and as a result, it could be confirmed that the osteoblast differentiation ability was increased in the compounds 1, 3, and 4. […] To study a mechanism with respect to osteoblast differentiation ability, the C3H/10T1/2 cell lines were treated with the compound 1 and the compound 4 for 6 days, respectively. […] Also, the C3H/10T1/2 cell lines were treated with the compound 1 and the compound 4 for 6 days, respectively. […] Furthermore, it could be ascertained that combining of Runx2 and TAZ proteins was increased by treatment of the compounds and thus the activity of Runx2-meditated transcription was increased. The compound 5, which is an ester derivative of the compound 1 (1163), was synthesized in order to prepare a material having more excellent bioactivity, and the structure of the compound 5 obtained thus was determined. […]

## CC(C)=CCC/C(C)=C/[C@H]1CC(C)=C[C@@]2(C=C(CO)[C@@H]3CC(=O)C(C)=C[C@@H]3O2)O1 [Compound 1]
LXRα
  IC50: 18.7 nM
LXRβ
  IC50: 20.4 nM
LXR protein
  direct binding with the LXR protein: directly bound
Other nuclear receptors
  activity on the other nuclear receptors: never showed the activity
C57BL/6 mice; mouse liver, real-time PCR
  liver expression of fatty acid synthetic genes and transporter genes of transporting fats to the liver: inhibits the expression
C57BL/6 mice; oral administration, T0901317-induced fatty liver, C57BL/6 mice
  fatty liver inhibitory efficacy: very superior fatty liver inhibitory efficacy
C57BL/6 mice; oral administration, fatty liver-induced C57BL/6 mice
  body weight among the treatment group and the control groups: no difference in body weight
[1]
  Solubility: Easily Dissolved in Organic Solvent of Acetone, Methanol, DMSO, etc.
Runx2, Osteocalcin, Msx2
  transcription degree of differentiation mark factors (Runx2, Osteocalcin, Msx2, etc.): remarkably increased
